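Protocol summary: plate cells (96-well), add compound at 5 concentrations, incubate 48 h, interpolate endpoints linearly. Abbreviation: GI50, concentration required for 50% inhibition of growth.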 Active and inactive are the calls of the source. Rule as the data show it: active = GI50 up to about 1.1 µM and inactive = higher.
Key:
Assay in all cases: DTP human tumour cell line panel, 48 h
HCT-15 = system: HCT-15
MDA-MB-231 = system: MDA-MB-231
HCT-116 = system: HCT-116
UACC-257 = system: UACC-257
MCF7 = system: MCF7
TK-10 = system: TK-10
SF-295 = system: SF-295
OVCAR-3 = system: OVCAR-3
HT-29 = system: HT-29
SF-268 = system: SF-268
NCI/ADR-RES = system: NCI/ADR-RES
NCI-H23 = system: NCI-H23
PC-3 = system: PC-3
Hs-578T = system: Hs-578T
A498 = system: A498
HCC 2998 = system: HCC 2998
K562 = system: K562
SK-MEL-28 = system: SK-MEL-28
SN12C = system: SN12C
MDA-N = system: MDA-N
NCI-H522 = system: NCI-H522
786-0 = system: 786-0
U-251 = system: U-251
OVCAR-5 = system: OVCAR-5
RXF 393 = system: RXF 393
A549 = system: A549
HOP-92 = system: HOP-92
KM12 = system: KM12
Malme-3M = system: Malme-3M
SK-MEL-5 = system: SK-MEL-5
RPMI-8226 = system: RPMI-8226
CAKI-1 = system: CAKI-1
SW-620 = system: SW-620
COLO 205 = system: COLO 205
OVCAR-4 = system: OVCAR-4
OVCAR-8 = system: OVCAR-8
LOX IMVI = system: LOX IMVI
IGROV-1 = system: IGROV-1
M14 = system: M14
UACC-62 = system: UACC-62
DU-145 = system: DU-145
HOP-62 = system: HOP-62
SNB-75 = system: SNB-75
ACHN = system: ACHN
NCI-H460 = system: NCI-H460
NCI-H226 = system: NCI-H226
MOLT-4 = system: MOLT-4
T47D = system: T47D
EKVX = system: EKVX
UO-31 = system: UO-31
SNB-19 = system: SNB-19
SK-OV-3 = system: SK-OV-3
MDA-MB-435 = system: MDA-MB-435
BT-549 = system: BT-549

In the case of Nc1c(S(N)(=O)=O)cc(S(N)(=O)=O)cc1S(N)(=O)=O, the GI50 (HCT-15) is reported as over 100 µM, the GI50 (MDA-MB-231) is reported as > 100 µM (inactive) and the GI50 (HCT-116) is reported as > 100 µM (inactive). The GI50 (UACC-257) was > 100 µM (inactive), the GI50 (MCF7) was > 100 µM (inactive) and the GI50 (TK-10) was > 100 µM (inactive). The GI50 (SF-295) was > 100 µM (inactive), the GI50 (OVCAR-3) was > 100 µM (inactive) and the GI50 (HT-29) was > 100 µM (inactive). The GI50 (SF-268) was > 100 µM (inactive), the GI50 (NCI/ADR-RES) was > 100 µM (inactive) and the GI50 (NCI-H23) was > 100 µM (inactive). For the same compound, the GI50 (PC-3) was 61.1 µM (inactive), the GI50 (Hs-578T) was > 100 µM (inactive) and the GI50 (A498) was > 100 µM (inactive). For the same compound, the GI50 (HCC 2998) was > 100 µM (inactive), the GI50 (K562) was > 100 µM (inactive) and the GI50 (SK-MEL-28) was > 100 µM (inactive). The GI50 (SN12C) was > 100 µM (inactive), the GI50 (MDA-N) was > 100 µM (inactive) and the GI50 (NCI-H522) was > 100 µM (inactive). For the same compound, the GI50 (786-0) was > 100 µM (inactive), the GI50 (U-251) was > 100 µM (inactive) and the GI50 (OVCAR-5) was > 100 µM (inactive). The GI50 (RXF 393) was > 100 µM (inactive), the GI50 (A549) was > 100 µM (inactive) and the GI50 (HOP-92) was > 100 µM (inactive). The GI50 (KM12) was > 100 µM (inactive), the GI50 (Malme-3M) was > 100 µM (inactive) and the GI50 (SK-MEL-5) was > 100 µM (inactive). For the same compound, the GI50 (RPMI-8226) was > 100 µM (inactive), the GI50 (CAKI-1) was > 100 µM (inactive) and the GI50 (SW-620) was > 100 µM (inactive). The GI50 (COLO 205) was > 100 µM (inactive), the GI50 (OVCAR-4) was > 100 µM (inactive) and the GI50 (OVCAR-8) was > 100 µM (inactive). For the same compound, the GI50 (LOX IMVI) was > 100 µM (inactive), the GI50 (IGROV-1) was > 100 µM (inactive) and the GI50 (M14) was > 100 µM (inactive). The GI50 (UACC-62) was > 100 µM (inactive), the GI50 (DU-145) was > 100 µM (inactive) and the GI50 (HOP-62) was > 100 µM (inactive). The GI50 (SNB-75) was > 100 µM (inactive), the GI50 (ACHN) was > 100 µM (inactive) and the GI50 (NCI-H460) was > 100 µM (inactive). The GI50 (NCI-H226) was > 100 µM (inactive), the GI50 (MOLT-4) was > 100 µM (inactive) and the GI50 (T47D) was > 100 µM (inactive). The GI50 (EKVX) was > 100 µM (inactive), the GI50 (UO-31) was > 100 µM (inactive) and the GI50 (SNB-19) was > 100 µM (inactive). The GI50 (SK-OV-3) was > 100 µM (inactive), the GI50 (MDA-MB-435) was > 100 µM (inactive) and the GI50 (BT-549) was > 100 µM (inactive).

— ChEMBL document CHEMBL1201862, “PubChem BioAssay data set” (2004)
